Results from patent US20240287070A1, “FUSED HETEROCYCLIC DERIVATIVES” (Janssen Sciences Ireland Unlimited Company, priority 2021, published 2024).

How the values were obtained:
[1] = test system: HBV (HepG2.117 cell line, inducibly HBV producing); test: Anti-HBV activity, intracellular HBV DNA by real-time PCR in HepG2.117 cell line; type: cell-based, hepatitis B virus; conditions: HepG2.117 cells, 3 days of treatment
Summary of the method: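 HepG2.117 cells replicate HBV under Tet-off control, without doxycycline. After induction of replication, cells were treated with serially diluted compound for 3 days, and intracellular HBV DNA was then quantified by real-time PCR with an HBV-specific primer set and probe.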

HepG2 or HepG2.117 cells = test: Cytotoxicity, ATPlite Luminescence Assay; type: cell-based, human; conditions: 3-days incubation unless marked with *
Summary of the method: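 Cells were exposed to compounds for 3 or 4 days, after which viability was determined by ATP-based luminescence (ATPlite).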

[2] = Human liver microsome stability; type: in vitro ADME; conditions: pooled human liver microsomes 0.5 mg/mL, 1 μM compound, NADPH 1 mM, 37° C., 0-60 min
Summary of the method: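 Single incubations with human liver microsomes started with 1 mM NADPH; samples taken at 0, 5, 10, 20, 40 and 60 min, quenched in acetonitrile (1:3). Cassette LC-MS analysis with internal standard; t½ derived from slope of ln peak-area ratio versus time (k = −gradient).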

Row | Compound | EC50 [1] [µM] | CC50 (HepG2 or HepG2.117 cells) [µM] | HLM Metabolism t1/2 [2] [h]
1 | CC(c1cnn(C2CC2)c(=O)c1)N1C[C@@H](C)n2nc3c(c2C1=O)CN(C(=O)c1ccc(Cl)c(C(F)(F)F)c1)[C@H](C)C3 (single isomer, unassigned) [Compound 54B, (3R,7R)-2-(4-chloro-3-(trifluoromethyl)benzoyl)-9-((S*)-1-(1-cyclopropyl-6-oxo-1,6-dihydropyridazin-4-yl)ethyl)-3,7-dimethyl-1,2,3,4,8,9-hexahydropyrido[4′,3′: 3,4]pyrazolo[1,5-a]pyrazin-10(7H)-one] | 0.01 | > 50 | 1.95
2 | CC(c1ccc(C(C)(C)O)nc1)N1C[C@@H](C)n2nc3c(c2C1=O)CN(C(=O)c1ccc(Cl)c(F)c1F)[C@H](C)C3 (single isomer, unassigned) [Compound 61B, (3R,7R)-2-(4-chloro-2,3-difluorobenzoyl)-9-((S*)-1-(6-(2-hydroxypropan-2-yl)pyridin-3-yl)ethyl)-3,7-dimethyl-1,2,3,4,8,9-hexahydropyrido[4′,3′:3,4]pyrazolo[1,5-a]pyrazin-10(7H)-one] | 0.3 | > 50 | 2.25
3 | CC(c1cnc(C(F)(F)F)cn1)N1C[C@@H](C)n2nc3c(c2C1=O)CN(C(=O)c1ccc(Cl)c(Cl)c1)[C@H](C)C3 (single isomer, unassigned) [Compound 7B, (3R,7R)-2-(3,4-dichlorobenzoyl)-3,7-dimethyl-9-((S*)-1-(5-(trifluoromethyl)pyrazin-2-yl)ethyl)-1,2,3,4,8,9-hexahydropyrido[4′,3′:3,4]pyrazolo[1,5-a]pyrazin-10(7H)-one] | 0.048 | 16.9 | >3
4 | CC(c1ccc(C(C)(C)O)nc1)N1C[C@@H](C)n2nc3c(c2C1=O)CN(C(=O)c1cc(F)c(Cl)c(F)c1)[C@H](C)C3 (single isomer, unassigned) [Compound 60B, (3R,7R)-2-(4-chloro-3,5-difluorobenzoyl)-9-((S*)-1-(6-(2-hydroxypropan-2-yl)pyridin-3-yl)ethyl)-3,7-dimethyl-1,2,3,4,8,9-hexahydropyrido[4′,3′:3,4]pyrazolo[1,5-a]pyrazin-10(7H)-one] | 0.052 | > 50 | >3
5 | CC(c1ccn(CC(C)(C)O)c(=O)c1)N1C[C@@H](C)n2nc3c(c2C1=O)CN(C(=O)c1ccc(Cl)c(C(F)(F)F)c1)[C@H](C)C3 (single isomer, unassigned) [Compound 64B, (3R,7R)-2-(4-chloro-3-(trifluoromethyl)benzoyl)-9-((S*)-1-(1-(2-hydroxy-2-methylpropyl)-2-oxo-1,2-dihydropyridin-4-yl)ethyl)-3,7-dimethyl-1,2,3,4,8,9-hexahydropyrido[4′,3′:3,4]pyrazolo[1,5-a]pyrazin-10(7H)-one] | 0.085 | > 50 | >3
6 | CC(c1ncc(C(F)(F)F)cn1)N1C[C@@H](C)n2nc3c(c2C1=O)CN(C(=O)c1ccc(Cl)c(Cl)c1)[C@H](C)C3 (single isomer, unassigned) [Compound 40B, (3R,7R)-2-(3,4-dichlorobenzoyl)-3,7-dimethyl-9-((S*)-1-(5-(trifluoromethyl)pyrimidin-2-yl)ethyl)-1,2,3,4,8,9-hexahydropyrido[4′,3′:3,4]pyrazolo[1,5-a]pyrazin-10(7H)-one] | 0.26 | 22.9 | >3
7 | CNC(=O)C1(Oc2ccc(C(C)N3C[C@@H](C)n4nc5c(c4C3=O)CN(C(=O)c3ccc(Cl)c(C#N)c3)[C@H](C)C5)cc2)CC1 (single isomer, unassigned) [Compound 13B, 1-(4-((S*)-1-((3R,7R)-2-(4-chloro-3-cyanobenzoyl)-3,7-dimethyl-10-oxo-1,2,3,4,7,8-hexahydropyrido[4′,3′:3,4]pyrazolo[1,5-a]pyrazin-9(10H)-yl)ethyl)phenoxy)-N-methylcyclopropanecarboxamide] | 0.091 | > 50 | 2.15
8 | CC(c1cnc(C(C)(C)O)cn1)N1C[C@@H](C)n2nc3c(c2C1=O)CN(C(=O)c1ccc(Cl)c(C(F)(F)F)c1)[C@H](C)C3 (single isomer, unassigned) [Compound 41B, (3R,7R)-2-(4-chloro-3-(trifluoromethyl)benzoyl)-9-((S*)-1-(5-(2-hydroxypropan-2-yl)pyrazin-2-yl)ethyl)-3,7-dimethyl-1,2,3,4,8,9-hexahydropyrido[4′,3′:3,4]pyrazolo[1,5-a]pyrazin-10(7H)-one] | 0.014 | > 50 | 1.65
9 | CC(c1ccc(C(C)(C)O)nc1)N1C[C@@H](C)n2nc3c(c2C1=O)CN(C(=O)c1ccc(Cl)c(C(F)(F)F)n1)[C@H](C)C3 (single isomer, unassigned) [Compound 62B, (3R,7R)-2-(5-chloro-6-(trifluoromethyl)picolinoyl)-9-((S*)-1-(6-(2-hydroxypropan-2-yl)pyridin-3-yl)ethyl)-3,7-dimethyl-1,2,3,4,8,9-hexahydropyrido[4′,3′:3,4]pyrazolo[1,5-a]pyrazin-10(7H)-one] | 0.068 | > 50 | 2.07
10 | C[C@@H]1Cc2nn3c(c2CN1C(=O)c1ccc(Cl)c(C(F)(F)F)c1)C(=O)N([C@@H](C)c1ccc([S@@]2(=O)=NCCC2)nc1)C[C@H]3C (relative stereo) [Compound 30B, (3R,7R)-2-(4-chloro-3-(trifluoromethyl)benzoyl)-3,7-dimethyl-9-((S*)-1-(6-((R*)-1-oxido-4,5-dihydro-3H-116-isothiazol-1-yl)pyridin-3-yl)ethyl)-1,2,3,4,8,9-hexahydropyrido[4′,3′:3,4]pyrazolo[1,5-a]pyrazin-10(7H)-one] | 0.074 | > 50 | 0.315
11 | Cc1ncnn1-c1ccc(C(C)N2C[C@@H](C)n3nc4c(c3C2=O)CN(C(=O)c2ccc(Cl)c(Cl)c2)[C@H](C)C4)cn1 (relative stereo) [Compound 25A, (3R,7R)-2-(3,4-dichlorobenzoyl)-3,7-dimethyl-9-((R*)-1-(6-(5-methyl-11H-1,2,4-triazol-1-yl)pyridin-3-yl)ethyl)-1,2,3,4,8,9-hexahydropyrido[4′,3′:3,4]pyrazolo[1,5-a]pyrazin-10(7H)-one] | 0.23 | > 50 | >3
12 | C[C@@H]1Cc2nn3c(c2CN1C(=O)c1ccc(Cl)c(C(F)(F)F)c1)C(=O)N([C@H](C)c1ccc([S@@](C)(=O)=NC#N)cc1)C[C@H]3C (relative stereo) [Compound 20A, N—((R*)-(4-((R*)-1-((3R,7R)-2-(4-chloro-3-(trifluoromethyl)benzoyl)-3,7-dimethyl-10-oxo-1,3,4,7,8,10-hexahydropyrido[4′,3′:3,4]pyrazolo[1,5-a]pyrazin-9(2H)-yl)ethyl)phenyl)(methyl)(oxo)-16-sulfaneylidene)cyanamide] | 0.041 | > 50 | >3
13 | CC(c1ccnc(Cl)c1)N1C[C@@H](C)n2nc3c(c2C1=O)CN(C(=O)c1ccc(Cl)c(Cl)c1)[C@H](C)C3 (single isomer, unassigned) [Compound 31B, (3R,7R)-9-((S*)-1-(2-chloropyridin-4-yl)ethyl)-2-(3,4-dichlorobenzoyl)-3,7-dimethyl-1,2,3,4,8,9-hexahydropyrido[4′,3′:3,4]pyrazolo[1,5-a]pyrazin-10(7H)-one] | 0.019 | 22.7 | 2.12
14 | C[C@@H]1Cc2nn3c(c2CN1C(=O)c1ccc(Cl)c(C(F)(F)F)c1)C(=O)N([C@H](C)c1ccc([S@]2(=O)=NCCC2)nc1)C[C@H]3C (relative stereo) [Compound 30C, (3R,7R)-2-(4-chloro-3-(trifluoromethyl)benzoyl)-3,7-dimethyl-9-((R*)-1-(6-((S*)-1-oxido-4,5-dihydro-3H-116-isothiazol-1-yl)pyridin-3-yl)ethyl)-1,2,3,4,8,9-hexahydropyrido[4′,3′:3,4]pyrazolo[1,5-a]pyrazin-10(7H)-one] | 0.31 | > 50 | 0.685
15 | CC(c1cc(F)ccn1)N1C[C@@H](C)n2nc3c(c2C1=O)CN(C(=O)c1ccc(Cl)c(Cl)c1)[C@H](C)C3 (single isomer, unassigned) [Compound 32B] | 0.088 | > 50 | 2.23
16 | CC(c1cnn(C(C)C)c(=O)c1)N1C[C@@H](C)n2nc3c(c2C1=O)CN(C(=O)c1ccc(Cl)c(C(F)(F)F)c1)[C@H](C)C3 (single isomer, unassigned) [Compound 53B, (3R,7R)-2-(4-chloro-3-(trifluoromethyl)benzoyl)-9-((S*)-1-(1-isopropyl-6-oxo-1,6-dihydropyridazin-4-yl)ethyl)-3,7-dimethyl-1,2,3,4,8,9-hexahydropyrido[4′,3′:3,4]pyrazolo[1,5-a]pyrazin-10(7H)-one] | 0.01 | > 50 | 1.18
17 | CC(c1cn(C2CC2)c(=O)cn1)N1C[C@@H](C)n2nc3c(c2C1=O)CN(C(=O)c1ccc(Cl)c(Cl)c1)[C@H](C)C3 (single isomer, unassigned) [Compound 56B, (3R,7R)-9-((S*)-1-(4-cyclopropyl-5-oxo-4,5-dihydropyrazin-2-yl)ethyl)-2-(3,4-dichlorobenzoyl)-3,7-dimethyl-1,2,3,4,8,9-hexahydropyrido[4′,3′:3,4]pyrazolo[1,5-a]pyrazin-10(7H)-one] | 0.084 | > 50 | 1.53
